According to publication PMC9906638, “AlphaFold accelerates artificial intelligence powered drug discovery: efficient discovery of a novel CDK20 small molecule inhibitor” (Chemical Science, 2023):
Where two headings read alike, the source gives them in different places.

Key:
CDK20 [1] = molecular target: T1, CDK20 (Homo sapiens, UniProt Q8IZL9); assay: CDK20 human CMGC kinase binding assay (KINOMEscan); conditions: for Kd: CDK20 kinase binding assay, mean ± SD of three independent experiments; for fold improvement in binding affinity compared to ISM042-2-001: ratio of Kd values
T1 construct: purchased DiscoverX/Eurofins (KINOMEscan service); host or cells: HEK-293
T1 sequence (Q8IZL9 whole entry): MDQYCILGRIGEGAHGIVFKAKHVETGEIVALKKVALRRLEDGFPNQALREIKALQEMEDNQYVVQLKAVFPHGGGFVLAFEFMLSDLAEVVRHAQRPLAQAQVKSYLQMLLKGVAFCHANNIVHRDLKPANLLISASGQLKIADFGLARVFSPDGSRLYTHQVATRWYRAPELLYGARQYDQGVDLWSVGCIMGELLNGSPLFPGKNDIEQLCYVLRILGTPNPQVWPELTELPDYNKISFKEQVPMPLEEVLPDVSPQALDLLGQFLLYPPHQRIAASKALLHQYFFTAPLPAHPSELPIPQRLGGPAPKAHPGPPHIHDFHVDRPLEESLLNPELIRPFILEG
Protocol: CDK20 human CMGC kinase binding assay
The assay was available as a product of the KINOMEscan service from DiscoverX/Eurofins. In brief, CDK20 proteins were produced in HEK-293 cells and subsequently tagged with DNA for qPCR detection. […] The liganded beads were blocked with excess biotin and washed with blocking buffer (SeaBlock (Pierce), 1% BSA, 0.05% Tween 20, and 1 mM DTT) to remove the unbound ligand and to reduce non-specific binding. […] Binding constants (Kds) were determined using an 11-point 3-fold compound dilution series with three DMSO control points. […] The compounds were then diluted directly into the assays such that the final concentration of DMSO was 0.9%. All reactions were performed in polypropylene 384-well plates. Each has a final volume of 0.02 ml. […] The kinase concentration in the eluates was measured by qPCR. Kds were calculated with a standard dose–response curve. The curves were fitted using a non-linear least squares fit with the Levenberg–Marquardt algorithm.

CDK20/CycT1 [2] = molecular target: T2, CDK20/CycT1 (Homo sapiens, UniProt Q8IZL9); design: method as in doi:10.1158/1538-7445.AM2016-2821
T2 construct: purchased Reaction Biology Corp. (33PanQinase Activity Assay service)
T2 sequence (Q8IZL9 whole entry): as above
T2 sequence (O60563 whole entry partner): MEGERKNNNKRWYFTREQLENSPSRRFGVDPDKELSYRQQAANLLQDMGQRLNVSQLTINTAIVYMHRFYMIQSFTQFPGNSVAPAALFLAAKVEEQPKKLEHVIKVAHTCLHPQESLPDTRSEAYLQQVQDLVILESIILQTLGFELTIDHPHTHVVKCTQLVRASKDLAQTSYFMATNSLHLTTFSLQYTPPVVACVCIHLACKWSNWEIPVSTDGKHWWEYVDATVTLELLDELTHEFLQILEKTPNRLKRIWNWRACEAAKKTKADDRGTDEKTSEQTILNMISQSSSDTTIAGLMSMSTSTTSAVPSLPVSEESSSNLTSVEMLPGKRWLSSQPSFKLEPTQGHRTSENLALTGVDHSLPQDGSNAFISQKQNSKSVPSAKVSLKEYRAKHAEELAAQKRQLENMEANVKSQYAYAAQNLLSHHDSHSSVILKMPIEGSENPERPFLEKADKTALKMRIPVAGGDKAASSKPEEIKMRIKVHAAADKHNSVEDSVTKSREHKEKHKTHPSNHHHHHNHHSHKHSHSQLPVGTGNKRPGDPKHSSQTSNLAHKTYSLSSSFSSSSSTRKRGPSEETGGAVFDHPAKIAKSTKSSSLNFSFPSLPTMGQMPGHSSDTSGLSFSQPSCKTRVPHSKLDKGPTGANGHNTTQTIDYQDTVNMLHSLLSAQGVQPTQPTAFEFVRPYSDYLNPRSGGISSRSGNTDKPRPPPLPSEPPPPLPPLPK

CDK20/CycT1 [3] = molecular target: T2, CDK20/CycT1; assay: CDK20 kinase activity assay (radiometric 33PanQinase); type: biochemical
Protocol: CDK20 kinase activity assay
A radiometric protein kinase assay ([33]PanQinase® ActivityAssay, available as a service product from Reaction Biology Corp.) was used for measuring the kinase activity of the CDK20 kinases. This assay was performed in 96-well FlashPlates™ from PerkinElmer (Boston, MA, USA) in a 50 μl reaction volume. The reaction cocktail was pipetted in four steps in the following order: (a) 25 μl of assay buffer (standard buffer/[γ-^33P]-ATP); (b) 10 μl of ATP solution (in H2O); (c) 5 μl of test compound (in 10% DMSO); (d) 10 μl of enzyme/substrate mixture. The assay for CDK20 kinase contained 70 mM HEPES-NaOH pH 7.5, 3 mM MgCl2, 3 mM MnCl2, 3 μM Na-orthovanadate, 1.2 mM DTT, 50 μg ml^−1 PEG20000, 1.0 μM ATP [γ-[33]P],-ATP (approx. 7 × 10^5 cpm per well), and 200 ng/50 μl kinase protein, and the substrate was 4.0 μg/50 μl. The compounds were dissolved to 1 × 10^−3 M in volumes of 100% DMSO. The 1 × 10^−3 M stock solutions were subjected to a serial, semi-logarithmic dilution using 100% DMSO as a solvent. The final volume of the assay was 50 μL All compounds were tested at 10 final assay concentrations in the range from 1 × 10^−5 M to 3 × 10^−10 M. The final DMSO concentration in the reaction cocktails was 1% in all cases. The “low control” was defined as the value that reflects unspecific binding of radioactivity to the plate in the absence of a protein kinase but in the presence of the substrate. The “high control” was defined as the full activity in the absence of any inhibitor. The difference between high and low controls was taken as 100% activity. As part of the data evaluation the low control value from a particular plate was subtracted from the high control value as well as from all 80 “compound values” of the corresponding plate.
The residual activities for each concentration and the compound’s IC50 values were calculated using Quattro Workflow V3.1.1 (Quattro Research GmbH, Munich, Germany; http://www.quattro-research.com/). […] The fitting method used was a least-squares fit.

CDK20 [4] = conditions: cited from earlier work
Huh7 = assay: Cell viability assay (Celltiter Glo), Huh7; type: cell-based; conditions: Homo sapiens, Huh-7, 72 h; HCC cell line with CDK20 overexpression; 3 days incubation; read-out: anti-proliferation IC50 in Huh7
Protocol: (§1) The Huh7 and HEK293 cells were maintained in DMEM with 10% FBS and 1% streptomycin and penicillin in 5% CO2. When the confluence of these two cell lines reached 80–90%, cells were harvested and resuspended, and the proper cells were added into a 384-well plate as below: Huh-7: 650 cells per well; HEK-293 : 300 cells per well. The final testing concentrations of the compounds were: 10 000, 3333, 1111, 370, 123, 41.2, 13.7, 4.57, 1.52, and 0.51 nM. The cells were incubated in a 37 °C, 5% CO2 incubator for 3 days, and then a reagent was added (Celltiter Glo assay kit) to the cells for testing and a Multiplate reader was used to record the chemiluminescence value. And GraphPad Prism 9 software was used to calculate IC50 and plot the effect–dose curve of compounds. The assays were conducted at Pharmaron Inc. in a fee-for-service mode.

HEK293 = assay: Cell viability assay (Celltiter Glo), counter screen HEK293; type: cell-based; conditions: Homo sapiens, HEK293, 72 h; counter screen cell line; 3 days incubation; read-out: anti-proliferation IC50 in HEK293
Protocol: as §1

[5] = read-out: CDK20/CycT1 IC50; poster of Mueller et al.; cited from earlier work
[6] = CDK20 kinase activity assay, 1.0 μM ATP, values with SD from three independent experiments, read-out: CDK20/CycT1 IC50

CCc1ccc(-c2cccc3nc(NC4CCCC4)[nH]c23)[nH]c1=O [ISM042-2-015]
Kd (CDK20 [1]): > 30 µM

NC(=O)c1cc(N2CCC(F)(F)CC2)nc(-c2cc[nH]n2)n1 [ISM042-2-007]
Kd (CDK20 [1]): > 30 µM

CC[C@H](CO)Nc1nc(NCc2ccccc2)c2ncn(C(C)C)c2n1 [Roscovitine]
IC50 (CDK20/CycT1 [2]; [5]): 8.68 µM

CCc1cnn2c(NCc3ccc[n+]([O-])c3)cc(N3CCCC[C@H]3CCO)nc12 [Dinaciclib]
IC50 (CDK20/CycT1 [2]; [5]): 2.86 µM

CNC(=O)c1cccc(Nc2ncc3ccccc3n2)c1 [ISM042-2-050]
Kd (CDK20 [1]): 5.33 ± 1.19 µM | IC50 (CDK20/CycT1 [3]; [6]): 7.1 ± 0.478 µM

O=C(Nc1ccc2cc(C(=O)Nc3nccs3)ccc2c1)c1ccc(Cl)c(Cl)c1 [AAPK-25]
Kd (CDK20 [4]): 8.02 µM

c1cc(-n2cc(C3COC3)nn2)cc(NC2CC2)n1 [ISM042-2-009]
Kd (CDK20 [1]): > 30 µM

c1cc(-c2nc3cnncc3s2)nc(N[C@H]2CCNC2)n1 [ISM042-2-025]
Kd (CDK20 [1]): > 30 µM

CN1CCC(NC(=O)c2cc(Nc3ncc4ccccc4n3)c[nH]2)CC1 [ISM042-2-055]
Kd (CDK20 [1]): 14.3 ± 1.7 µM | IC50 (CDK20/CycT1 [3]; [6]): 4.08 ± 0.575 µM

CC(=O)c1c(C)c2cnc(Nc3ccc(N4CCNCC4)cn3)nc2n(C2CCCC2)c1=O [Palbociclib]
IC50 (CDK20/CycT1 [2]; poster of Mueller et al.; read-out: CDK20/CycT1 IC50; cited from earlier work): 1.26 µM

CNC(=O)c1cc(Nc2ncc3ccc(-c4cn[nH]c4)cc3n2)c[nH]1 [ISM042-2-048]
Kd (CDK20 [1]): 0.567 ± 0.256 µM | fold improvement in binding affinity compared to ISM042-2-001 (CDK20 [1]): 15 fold | IC50 (CDK20/CycT1 [3]; [6]): 0.0334 ± 0.0226 µM | IC50 (Huh7): 0.209 ± 0.0033 µM | IC50 (HEK293): 1.71 ± 0.67 µM

Cn1cc(Oc2ccnc(NC3(C)CC3)c2)cn1 [ISM042-2-004]
Kd (CDK20 [1]): > 30 µM

CC(C)(CO)CNCc1ccc(Nc2ncc(SCc3ncc(C(C)(C)C)o3)s2)nc1 [BMS-357075]
Kd (CDK20 [4]; disclosed by Eurofins): 0.056 µM

Cc1ccnc(-n2cncc2N2CC3(COC3)C2)n1 [ISM042-2-019]
Kd (CDK20 [1]): > 30 µM

CN1CCN(CCNC(=O)c2cc(Nc3ncc4ccccc4n3)c[nH]2)CC1 [ISM042-2-053]
Kd (CDK20 [1]): 17.7 ± 4.03 µM | IC50 (CDK20/CycT1 [3]; [6]): 7.8 ± 0.125 µM

CN(C)CCNC(=O)c1cc(Nc2ncc3ccccc3n2)c[nH]1 [ISM042-2-052]
Kd (CDK20 [1]): 18.7 ± 6.34 µM | IC50 (CDK20/CycT1 [3]): > 6 µM

CNC(=O)c1cc(Nc2ncc3ccc(=O)n(C4CCCC4)c3n2)c[nH]1 [ISM042-2-049]
Kd (CDK20 [1]): 0.36 ± 0.0141 µM | fold improvement in binding affinity compared to ISM042-2-001 (CDK20 [1]): 24 fold | IC50 (CDK20/CycT1 [3]; [6]): 0.468 ± 0.006 µM

CNC(=O)c1cc(Nc2ncc3ccccc3n2)c[nH]1 [ISM042-2-001]
Kd (CDK20 [1]): 9.2 ± 0.5 µM | IC50 (CDK20/CycT1 [3]; [6]): > 6 µM
